Source: the supplement of paper PMC10307832

Columns and labels:
Experiment in all cases: relative viability (nuclei count vs DMSO), 5 days (fraction); higher = more cells survive
IMD-0354 + Dasatinib = compound: O=C(Nc1cc(C(F)(F)F)cc(C(F)(F)F)c1)c1cc(Cl)ccc1O [IMD-0354] + Cc1nc(Nc2ncc(C(=O)Nc3c(C)cccc3Cl)s2)cc(N2CCN(CCO)CC2)n1 [Dasatinib] (partner 0.075 µM)
Outline: (§1)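 Relative viability was taken as the ratio of nuclei in treated wells to nuclei in vehicle wells. Lung cancer cell lines in 1536-well plates received compounds by pin tool one day after seeding, either one drug alone or a fixed anchor-drug dose plus five library-drug doses (not always all listed) in √10 steps. Nuclei were counted on 4× images after 5 days of treatment, and values are medians of duplicate plates.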

IMD-0354 + Luminespib = compound: O=C(Nc1cc(C(F)(F)F)cc(C(F)(F)F)c1)c1cc(Cl)ccc1O [IMD-0354] + CCNC(=O)c1noc(-c2cc(C(C)C)c(O)cc2O)c1-c1ccc(CN2CCOCC2)cc1 [Luminespib] (partner 0.01 µM)
Outline: as §1

IMD-0354 + Navitoclax = compound: O=C(Nc1cc(C(F)(F)F)cc(C(F)(F)F)c1)c1cc(Cl)ccc1O [IMD-0354] + CC1(C)CCC(c2ccc(Cl)cc2)=C(CN2CCN(c3ccc(C(=O)NS(=O)(=O)c4ccc(N[C@H](CCN5CCOCC5)CSc5ccccc5)c(S(=O)(=O)C(F)(F)F)c4)cc3)CC2)C1 [Navitoclax] (partner 0.5 µM)
Outline: as §1

CX-5461 + Crizotinib = compound: Cc1cnc(CNC(=O)c2c(=O)c3ccc(N4CCCN(C)CC4)nc3n3c2sc2ccccc23)cn1 [CX-5461] + C[C@@H](Oc1cc(-c2cnn(C3CCNCC3)c2)cnc1N)c1c(Cl)ccc(F)c1Cl [Crizotinib] (partner 1 µM)
Outline: as §1

Row | Cell Line | relative viability (IMD-0354 + Dasatinib; first compound 0.04 µM) | relative viability (IMD-0354 + Dasatinib; first compound 0.1265 µM) | relative viability (IMD-0354 + Dasatinib; first compound 0.4 µM) | relative viability (IMD-0354 + Dasatinib; first compound 1.265 µM) | relative viability (IMD-0354 + Dasatinib; first compound 4 µM) | relative viability (IMD-0354 + Luminespib; first compound 0.04 µM) | relative viability (IMD-0354 + Luminespib; first compound 0.1265 µM) | relative viability (IMD-0354 + Luminespib; first compound 0.4 µM) | relative viability (IMD-0354 + Luminespib; first compound 1.265 µM) | relative viability (IMD-0354 + Luminespib; first compound 4 µM) | relative viability (IMD-0354 + Navitoclax; first compound 0.04 µM) | relative viability (IMD-0354 + Navitoclax; first compound 0.1265 µM) | relative viability (IMD-0354 + Navitoclax; first compound 0.4 µM) | relative viability (IMD-0354 + Navitoclax; first compound 1.265 µM) | relative viability (IMD-0354 + Navitoclax; first compound 4 µM) | relative viability (CX-5461 + Crizotinib; first compound 0.01 µM) | relative viability (CX-5461 + Crizotinib; first compound 0.03162 µM) | relative viability (CX-5461 + Crizotinib; first compound 0.1 µM) | relative viability (CX-5461 + Crizotinib; first compound 0.3162 µM) | relative viability (CX-5461 + Crizotinib; first compound 1 µM)
1 | NCI-H1734 | 0.516 | 0.4 | 0.343 | 0.195 | 0.134 | 0.201 | 0.181 | 0.2 | 0.147 | 0.143 | 0.905 | 0.86 | 0.446 | 0.412 | 0.133 | 0.666 | 0.82 | 0.742 | 0.536 | 0.623
2 | NCI-H1755 | 0.438 | 0.461 | 0.395 | 0.243 | 0.34 | 0.321 | 0.515 | 0.312 | 0.456 | 0.289 | 1.1 | 1.05 | 0.591 | 0.481 | 0.16 | 0.921 | 0.937 | 0.895 | 0.842 | 0.833
3 | NCI-H1792 | 0.906 | 0.69 | 0.545 | 0.406 | 0.416 | 0.465 | 0.411 | 0.35 | 0.302 | 0.258 | 0.761 | 0.564 | 1.66 | 0.346 | 0.482 | 0.957 | 0.979 | 0.949 | 0.978 | 0.913
4 | NCI-H1915 | 0.31 | 0.322 | 0.129 | 0.109 | 0.14 | 0.609 | 0.665 | 0.296 | 0.355 | 0.226 | 0.708 | 0.857 | 0.412 | 0.661 | 0.219 | 0.937 | 0.934 | 0.892 | 0.888 | 0.902
5 | NCI-H1944 | 0.21 | 0.212 | 0.22 | 0.167 | 0.114 | 0.727 | 0.818 | 0.669 | 0.634 | 0.17 | 0.962 | 1.13 |  | 1.01 | 0.125 | 1.16 | 1.38 | 1.18 |  | 1.05
6 | NCI-H1975 | 0.421 | 0.398 | 0.233 | 0.128 | 0.135 | 0.24 | 0.197 | 0.183 | 0.153 | 0.162 | 1.28 | 1.19 | 0.528 | 0.44 | 0.184 | 1.13 | 0.986 | 0.821 | 1.08 | 0.462
7 | NCI-H1993 | 0.562 | 0.652 | 0.448 | 0.543 | 0.51 | 0.852 | 0.701 | 0.623 | 0.483 | 0.619 | 0.975 | 0.792 | 0.722 | 0.552 | 0.576 | 0.972 | 0.819 | 0.862 | 0.822 | 0.825
8 | NCI-H2009 | 0.367 | 0.292 | 0.263 | 0.109 | 0.0808 | 1.09 | 0.923 | 0.675 | 0.148 | 0.159 | 1.22 | 1.02 | 0.915 | 0.642 | 0.115 | 1.07 | 1.02 | 1.09 | 1.02 | 0.697
9 | NCI-H2023 | 0.713 | 0.497 | 0.361 | 0.108 | 0.113 | 1.03 | 0.799 | 0.292 | 0.0846 | 0.121 | 1.16 | 1.05 | 0.561 | 0.257 | 0.121 | 0.584 | 0.558 |  | 0.391 | 0.0858
10 | NCI-H2085 | 0.219 | 0.241 | 0.298 | 0.195 | 0.201 | 0.498 | 0.41 | 0.409 | 0.274 | 0.264 | 1.17 | 1.16 | 0.859 | 0.62 | 0.251 | 0.908 | 0.951 | 0.833 | 0.785 | 0.555
11 | NCI-H2087 | 0.828 | 0.896 | 0.312 | 0.122 | 0.151 | 0.147 | 0.183 | 0.173 | 0.12 | 0.127 | 0.918 | 0.815 | 0.363 | 0.111 | 0.158 | 0.989 | 0.969 | 0.874 | 0.813 | 0.593
12 | NCI-H2126 | 0.587 | 0.666 | 0.387 | 0.216 | 0.237 | 0.866 | 0.867 | 0.55 | 0.27 | 0.213 | 0.905 | 0.817 | 0.673 | 0.79 | 0.269 | 1.05 | 1.11 | 1.08 | 1.07 | 0.975
13 | NCI-H2170 | 0.577 | 0.737 | 0.408 | 0.335 | 0.186 | 0.754 | 0.746 | 0.491 | 0.764 | 0.231 | 0.608 | 0.585 | 0.562 | 0.644 | 0.274 | 1.17 | 1.29 | 1.28 | 1.18 | 1.09
14 | NCI-H2228 | 0.538 | 0.487 | 0.373 | 0.184 | 0.202 | 0.102 | 0.169 | 0.109 | 0.128 | 0.145 | 0.738 | 1.12 | 0.589 | 1.27 | 0.355 | 0.445 | 0.602 | 0.511 | 0.482 | 0.204
15 | NCI-H2347 | 0.321 | 0.308 | 0.278 | 0.162 | 0.229 | 0.523 | 0.331 | 0.356 | 0.395 | 0.267 | 0.818 | 0.838 | 0.55 | 0.35 | 0.255 | 0.446 | 0.696 | 0.674 | 0.687 | 0.523
16 | NCI-H2405 | 0.213 | 0.242 | 0.217 | 0.249 | 0.116 | 0.752 | 0.669 | 0.671 | 0.358 | 0.288 | 1.08 | 0.952 | 0.612 | 0.174 | 0.113 | 0.827 | 0.949 | 0.843 | 0.549 | 0.821
